pIC50: −log10 of the molar value.
Molecular target: NLRP3 inflammasome (Homo sapiens (Human), UniProt Q96P20)
Test: Evaluation of NLRP3 inflammasome inhibitory activity (inhibition of IL-1β production in THP1-Null cells, LPS/Nigericin)
Conditions: for pIC50: inhibition of IL-1β production in THP1-Null cells; for inhibition at 3 µM: read-out: % inhibition at 3 μM

NLRP3 inflammasome, sequence (Q96P20 whole entry): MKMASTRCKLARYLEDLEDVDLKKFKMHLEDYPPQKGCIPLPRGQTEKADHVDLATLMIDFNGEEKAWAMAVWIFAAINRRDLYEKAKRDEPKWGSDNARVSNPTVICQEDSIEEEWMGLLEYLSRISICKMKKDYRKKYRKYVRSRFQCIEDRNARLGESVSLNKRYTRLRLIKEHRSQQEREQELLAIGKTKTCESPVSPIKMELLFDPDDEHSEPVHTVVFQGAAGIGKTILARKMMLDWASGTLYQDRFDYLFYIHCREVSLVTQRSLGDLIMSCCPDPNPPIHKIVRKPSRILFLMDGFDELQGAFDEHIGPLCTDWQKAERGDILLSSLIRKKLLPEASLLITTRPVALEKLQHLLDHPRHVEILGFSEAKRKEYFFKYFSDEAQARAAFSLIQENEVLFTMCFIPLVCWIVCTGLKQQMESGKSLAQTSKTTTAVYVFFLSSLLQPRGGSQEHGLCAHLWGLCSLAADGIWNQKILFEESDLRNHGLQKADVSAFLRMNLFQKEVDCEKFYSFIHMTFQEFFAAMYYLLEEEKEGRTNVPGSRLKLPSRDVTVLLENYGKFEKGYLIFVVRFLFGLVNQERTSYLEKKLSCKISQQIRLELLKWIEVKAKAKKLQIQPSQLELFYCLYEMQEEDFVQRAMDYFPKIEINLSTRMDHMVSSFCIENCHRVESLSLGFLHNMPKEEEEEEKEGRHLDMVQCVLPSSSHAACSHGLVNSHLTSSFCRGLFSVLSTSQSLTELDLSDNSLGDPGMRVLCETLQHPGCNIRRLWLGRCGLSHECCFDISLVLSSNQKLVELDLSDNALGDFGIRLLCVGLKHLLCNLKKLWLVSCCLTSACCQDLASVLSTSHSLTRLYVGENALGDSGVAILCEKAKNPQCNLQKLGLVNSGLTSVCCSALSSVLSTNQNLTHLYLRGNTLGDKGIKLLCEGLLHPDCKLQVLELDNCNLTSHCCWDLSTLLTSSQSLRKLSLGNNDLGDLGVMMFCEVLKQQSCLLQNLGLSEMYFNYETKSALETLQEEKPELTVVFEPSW

Structure (SMILES) | pIC50 | inhibition at 3 µM
Cc1ccc(CC(F)(F)F)cc1Nc1nc(C(=O)NS(=O)(=O)N2CCCOCC2)co1 [Example 2-063] | 7.17 | 
Cc1ccc(C(C)(C)C)cc1Nc1nc(C(=O)NS(=O)(=O)N(C)C)co1 [Example 2-069] | 7.18 | 
CC(C)c1ccc(C(C)C)c(Nc2nc(C(=O)NS(=O)(=O)N(C)C)co2)c1 [Example 2-070] | 6.92 | 
Cc1ccc(C)c(Nc2nc(C(=O)NS(=O)(=O)N3CCCOCC3)co2)c1 [Example 2-073] | 6.55 | 
Cc1cnc(C(F)(F)F)cc1Nc1nc(C(=O)NS(=O)(=O)N(C)C)co1 [Example 2-074] | 4.96 | 
Cc1cnc(C(F)(F)F)cc1Nc1nc(C(=O)NS(=O)(=O)N2CCCOCC2)co1 [Example 2-075] | 5.35 | 
Cc1ccc2c(c1Nc1nc(C(=O)NS(=O)(=O)N(C)C)cs1)CCC2 [Example 2-083] | 6.31 | 
Cc1ccc2c(c1Nc1nc(C(=O)NS(=O)(=O)N3CCOCC3)cs1)CCC2 [Example 2-084] | 6.85 | 
Cc1ccc2c(c1Nc1nc(C(=O)NS(=O)(=O)N3CCCOCC3)cs1)CCC2 [Example 2-085] | 6.92 | 
Cc1cnc(C)c(Nc2nc(C(=O)NS(=O)(=O)N(C)C)co2)n1 [Example 2-086] |  | 17%
Cc1ccc(C(F)(F)F)nc1Nc1nc(C(=O)NS(=O)(=O)N(C)C)co1 [Example 2-087] | 6.26 | 
Cc1ccc(C(F)(F)F)nc1Nc1nc(C(=O)NS(=O)(=O)N2CCCOCC2)co1 [Example 2-088] | 6.92 | 
CC(C)c1nn(C(C)C)cc1Nc1nc(C(=O)NS(=O)(=O)N(C)C)co1 [Example 2-089] | 5.92 | 
CC(C)c1nn(C(C)C)cc1Nc1nc(C(=O)NS(=O)(=O)N2CCCOCC2)co1 [Example 2-090] | 6.24 | 
Cc1ccc(C(F)(F)F)cc1Nc1nc(C(=O)NS(=O)(=O)N2CCC(=O)N(C)CC2)co1 [Example 2-093] | 7.23 | 
Cc1ccc(C2(C#N)CC2)cc1Nc1nc(C(=O)NS(=O)(=O)N(C)C)co1 [Example 2-094] | 6.57 | 
Cc1ccc2c(c1Nc1nc(C(=O)NS(=O)(=O)N3CCCOCC3)co1)CCC2 [Example 2-097] | 6.82 | 
Cc1ccc(C(C)C)cc1Nc1nc(C(=O)NS(=O)(=O)N2CCOCC2(C)C)co1 [Example 2-098] | 6.60 | 
Cc1ncc(C(F)(F)F)cc1Nc1nc(C(=O)NS(=O)(=O)N2CCCOCC2)co1 [Example 2-104] | 5.74 | 
CC(C)c1ccc(C(F)F)cc1Nc1nc(C(=O)NS(=O)(=O)N(C)C)co1 [Example 2-105] | 7.07 | 
Cc1ccc(C2(C#N)CC2)cc1Nc1nc(C(=O)NS(=O)(=O)N2CCCOCC2)co1 [Example 2-107] | 6.82 | 
CC(C)c1cn(C(C)C)nc1Nc1nc(C(=O)NS(=O)(=O)N2CCCOCC2)co1 [Example 2-116] | 7.07 | 
CC(C)c1cn(C(C)C)nc1Nc1nc(C(=O)NS(=O)(=O)N(C)C)co1 [Example 2-117] | 6.96 | 
CC(C)c1ccc2c(c1Nc1nc(C(=O)NS(=O)(=O)N(C)C)co1)CCC2 [Example 2-118] | 6.59 | 
CC(C)c1ccc2c(c1Nc1nc(C(=O)NS(=O)(=O)N3CCCOCC3)co1)CCC2 [Example 2-119] | 7.02 | 
CC(C)c1ccc(C(F)(F)F)nc1Nc1nc(C(=O)NS(=O)(=O)N2CCCOCC2)co1 [Example 2-125] | 6.60 | 

Structure (SMILES) | pIC50 | inhibition at 3 µM
O=C(NS(=O)(=O)N1CCCOCC1)c1coc(Nc2cc(C(F)(F)F)ccc2Cl)n1 [Example 2-136] |  | -1.6%
COc1ccc(C(F)(F)F)cc1Nc1nc(C(=O)NS(=O)(=O)N2CCCOCC2)co1 [Example 2-137] | 6.89 | 
CC(C)c1cn(C(C)C)nc1Nc1nc(C(=O)NS(=O)(=O)N(C)C(C)C)co1 [Example 2-138] | 7.04 | 
CC(C)c1cn(C(C)C)nc1Nc1nc(C(=O)NS(=O)(=O)N2CCCC2)co1 [Example 2-139] | 6.57 | 
Cc1ccc(Br)cc1Nc1nc(C(=O)NS(=O)(=O)N2CCCOCC2)co1 [Example 2-140] | 7.13 | 
Cc1cc(C#N)c(C(F)(F)F)cc1Nc1nc(C(=O)NS(=O)(=O)N2CCCOCC2)co1 [Example 2-142] | 5.20 | 
CC(C)c1cnc(C(F)(F)F)nc1Nc1nc(C(=O)NS(=O)(=O)N2CCCOCC2)co1 [Example 2-144] |  | 23%
Cc1cn(C(C)C)nc1Nc1nc(C(=O)NS(=O)(=O)N2CCCOCC2)co1 [Example 2-147] | 6.38 | 
CCCN1CCCN(S(=O)(=O)NC(=O)c2coc(Nc3cc(C(F)(F)F)ccc3C)n2)CC1 [Example 2-154] | 6.64 | 
COC1CCN(S(=O)(=O)NC(=O)c2coc(Nc3cc(C(F)(F)F)ccc3C)n2)CC1 [Example 2-158] | 7.00 | 
CCCS(=O)(=O)N1CCCN(S(=O)(=O)NC(=O)c2coc(Nc3cn(C(C)C)nc3C(C)C)n2)CC1 [Example 2-160] | 6.77 | 
CC(C)n1cc(Nc2nc(C(=O)NS(=O)(=O)N3CCCOCC3)co2)c(C(F)(F)F)n1 [Example 2-169] | 5.77 | 
CC(C)c1nn(C(C)C)cc1Nc1nc(C(=O)NS(=O)(=O)N2CCCN(S(=O)(=O)CC(C)(C)C)CC2)co1 [Example 2-170] | 6.22 | 
CC(C)c1ccc(OC(F)(F)F)c(Nc2nc(C(=O)NS(=O)(=O)N3CCCOCC3)co2)c1 [Example 2-175] | 6.40 | 
CC(C)c1ccc(C(F)(F)F)c(Nc2nc(C(=O)NS(=O)(=O)N3CCCOCC3)co2)c1 [Example 2-176] | 4.74 | 
CC(C)Cc1nn(C(C)C)cc1Nc1nc(C(=O)NS(=O)(=O)N2CCCOCC2)co1 [Example 2-180] |  | -3%
Cc1cn(CC(C)C)nc1Nc1nc(C(=O)NS(=O)(=O)N2CCCOCC2)co1 [Example 2-189] |  | 16%
CCc1nn(C(C)C)cc1Nc1nc(C(=O)NS(=O)(=O)N2CCCOCC2)co1 [Example 2-193] |  | 46%
CC(C)n1cc(Nc2nc(C(=O)NS(=O)(=O)N3CCCOCC3)co2)c(C(C)(C)C)n1 [Example 2-194] | 5.82 | 
CC(C)n1cc(Nc2nc(C(=O)NS(=O)(=O)N3CCCOCC3)co2)c(C2CC2)n1 [Example 2-195] | 5.85 | 
CC(C)n1cc(Nc2nc(C(=O)NS(=O)(=O)N3CCCOCC3)co2)c(C2CCC2)n1 [Example 2-196] | 5.57 | 
Cc1cn(C(F)F)nc1Nc1nc(C(=O)NS(=O)(=O)N2CCCOCC2)co1 [Example 2-209] |  | 33%
Cc1ccc(C(F)(F)F)cc1Nc1nc(C(=O)NS(=O)(=O)N2CCCN(c3ccncn3)CC2)co1 [Example 2-214] | 7.05 | 
CCCC(=O)N1CCCN(S(=O)(=O)NC(=O)c2coc(Nc3cc(C(F)(F)F)ccc3C)n2)CC1 [Example 2-215] | 7.21 | 
Cc1ccc(C(F)(F)F)cc1Nc1nc(C(=O)NS(=O)(=O)N2CCc3nncn3CC2)co1 [Example 2-217] | > 5.52 | 
CCCC(=O)N1CCCN(S(=O)(=O)NC(=O)c2coc(Nc3cc(C(F)F)ccc3C(C)C)n2)CC1 [Example 2-223] | 7.15 | 

The remaining lines, values ahead:

pIC50 | inhibition at 3 µM | Structure (SMILES)
7.34 |  | CCc1ccc(C(F)(F)F)cc1Nc1nc(C(=O)NS(=O)(=O)N(C)C)co1 [Example 2-060]
7.32 |  | Cc1ccc(C(F)(F)F)cc1Nc1nc(C(=O)NS(=O)(=O)N(C)C)cs1 [Example 2-062]
7.59 |  | CCS(=O)(=O)N1CCCN(S(=O)(=O)NC(=O)c2coc(Nc3cc(C(F)(F)F)ccc3C)n2)CC1 [Example 2-064]
7.49 |  | Cc1ccc(C(F)(F)F)cc1Nc1nc(C(=O)NS(=O)(=O)N2CCOCC2)cs1 [Example 2-065]
> 7.52 |  | Cc1ccc(C(F)(F)F)cc1Nc1nc(C(=O)NS(=O)(=O)N2CCCOCC2)cs1 [Example 2-066]
7.68 |  | Cc1ccc(C(F)(F)F)cc1Nc1nc(C(=O)NS(=O)(=O)N2CCCN(S(=O)(=O)N(C)C)CC2)co1 [Example 2-099]
8.00 |  | CCCS(=O)(=O)N1CCCN(S(=O)(=O)NC(=O)c2coc(Nc3cc(C(F)(F)F)ccc3C)n2)CC1 [Example 2-100]
7.41 |  | COC(=O)N1CCCN(S(=O)(=O)NC(=O)c2coc(Nc3cc(C(F)(F)F)ccc3C)n2)CC1 [Example 2-101]
7.30 |  | CCC(=O)N1CCCN(S(=O)(=O)NC(=O)c2coc(Nc3cc(C(F)(F)F)ccc3C)n2)CC1 [Example 2-102]
7.70 |  | Cc1ccc(C(F)(F)F)cc1Nc1nc(C(=O)NS(=O)(=O)N2CCCN(S(=O)(=O)C3CC3)CC2)co1 [Example 2-103]
7.36 |  | CC(C)c1ccc(C(F)F)cc1Nc1nc(C(=O)NS(=O)(=O)N2CCCOCC2)co1 [Example 2-106]
8.00 |  | CCCCS(=O)(=O)N1CCCN(S(=O)(=O)NC(=O)c2coc(Nc3cc(C(F)(F)F)ccc3C)n2)CC1 [Example 2-126]
7.70 |  | Cc1ccc(C(F)(F)F)cc1Nc1nc(C(=O)NS(=O)(=O)N2CCCN(S(=O)(=O)CC(C)C)CC2)co1 [Example 2-128]
7.70 |  | CCN(C)S(=O)(=O)N1CCCN(S(=O)(=O)NC(=O)c2coc(Nc3cc(C(F)(F)F)ccc3C)n2)CC1 [Example 2-129]
7.70 |  | Cc1ccc(C(F)(F)F)cc1Nc1nc(C(=O)NS(=O)(=O)N2CCCN(S(=O)(=O)CCC(F)(F)F)CC2)co1 [Example 2-130]
7.33 |  | CCCCS(=O)(=O)N1CCCN(S(=O)(=O)NC(=O)c2coc(Nc3nn(C(C)C)cc3C(C)C)n2)CC1 [Example 2-177]
7.51 |  | CCCCS(=O)(=O)N1CCCN(S(=O)(=O)NC(=O)c2coc(Nc3nn(C(C)C)cc3C)n2)CC1 [Example 2-181]
8.00 |  | CCCCC(=O)N1CCCN(S(=O)(=O)NC(=O)c2coc(Nc3cc(C(F)(F)F)ccc3C)n2)CC1 [Example 2-182]
7.82 |  | Cc1ccc(C(F)(F)F)cc1Nc1nc(C(=O)NS(=O)(=O)N2CCCN(c3ncccn3)CC2)co1 [Example 2-183]
7.39 |  | Cc1ccc(C(F)(F)F)cc1Nc1nc(C(=O)NS(=O)(=O)N2CCCN(c3nccc(C(C)C)n3)CC2)co1 [Example 2-186]
7.74 |  | CCCCS(=O)(=O)N1CCCN(S(=O)(=O)NC(=O)c2coc(Nc3cc(C)ccc3C)n2)CC1 [Example 2-203]
7.80 |  | Cc1ccnc(N2CCCN(S(=O)(=O)NC(=O)c3coc(Nc4cc(C(F)(F)F)ccc4C)n3)CC2)n1 [Example 2-211]
7.41 |  | Cc1cc(F)c(C(F)(F)F)cc1Nc1nc(C(=O)NS(=O)(=O)N2CCCOCC2)co1 [Example 2-213]

From patent publication US20230399319A1, “Acylsulfamide Compound and Pharmaceutical Use Therefor” (Japan Tobacco Inc., priority 2019, published 2023)
